The record followed here is ChEMBL document CHEMBL5329215, “Review and prospects of targeted therapies for Spleen tyrosine kinase (SYK)” (Bioorg Med Chem, 2023).

The pIC50 is −log10 of the IC50, conventionally taken in molar units. The low end stands for a high IC50, the high end for a low IC50. Broadly, the pEC50 is the negative decadic logarithm of the EC50, by convention in mol/L.

pEC50, pIC50: −log10 of the molar value.

In assay [1] the target is Tyrosine-protein kinase SYK (Homo sapiens, UniProt P43405). Nature of the assay: Inhibition of human SYK at Py+3 pocket.
Assay [2] is described as follows: PROTAC activity at E3 ubiquitin ligase (unknown origin)/STAT5 (unknown origin) assessed as […].

For `O=C(O)CCCCN(CCCC1CCCCC1)S(=O)(=O)/C=C/c1ccc(NC(=O)C2CCC(C(C(=O)O)C(=O)O)CC2)cc1` (configuration not stated), the pIC50 in assay [1] was 4.42.
Turning to `CN(CCCC#Cc1cccc2c1CN(C1CCC(=O)NC1=O)C2=O)C(=O)CCN(C(=O)[C@@H]1CCCN1C(=O)[C@H](NC(=O)c1cc2cc(C(F)(F)P(=O)(O)O)ccc2s1)C(C)(C)C)c1ccc(-c2nccs2)cc1` (some centres not stated), in assay [2], the pEC50 was 7.00.
